According to patent US9556143B2, “Metalloenzyme inhibitor compounds” (Viamet Pharmaceuticals, Inc., priority 2011, dated 2017):

What follows are compounds tested on Septoria tritici (ATCC 26517) (assay: Minimum Inhibitory Concentration (MIC) (Septoria tritici), CLSI-based microdilution). Details: Zymoseptoria tritici, ATCC26517, 168 h, MIC class; 50% reduction in growth of S. tritici; 7 days at 22 °C; read-out: Septoria Rating.
Format: cell-based
Description: C. Minimum Inhibitory Concentration (MIC) (Septoria tritici) Compounds of the present disclosure were assessed for their ability to inhibit the growth of a common strain of the fungal plant pathogen Septoria tritici (ATCC 26517) using a procedure based on a Clinical and Laboratory Standards Institute (CLSI) microdilution assay protocol for filamentous fungi. Stock solutions of the test compounds and standards were prepared in DMSO at 6400 μg/mL. Each stock solution was used to prepare a 2-fold dilution series ranging from 16 to 0.016 μg/mL (total of 11 compound concentrations) in RPMI-1640 (Roswell Park Memorial Institute) medium containing 3-(N-morpholino)propanesulfonic acid (MOPS) buffer and 2% DMSO. A 100 μL aliquot of the dilutions was added to columns 1 (16 μg/mL compound) through 11 (0.016 μg/mL compound) of a 96-well microtiter plate. This format was replicated in a second row of the microtiter plate. Thus, each microtiter plate could include 11 concentrations of four test or control compounds replicated twice. A 100 μL aliquot of RPMI-1640/MOPS/2% DMSO medium was added to column 12 (no compound control) of the microtiter plate. A fresh culture of S. tritici was used to prepare a solution of approximately 5×10^4 colony-forming units per milliliter (cfu/mL) in RPMI/MOPS medium without DMSO. A 100 μL aliquot of this solution was added to all 96 wells in the microtiter plate. […]

MIC [µg/mL]	SMILES
≤ 0.5	OC(Cn1cnnn1)(c1ccc(F)cc1F)C(F)(F)c1ccc(-c2ccc(Cl)nc2)cn1 (stereo not shown) [Compound 30, 1-(6′-Chloro-[3,3′-bipyridin]-6-yl)-2-(2,4-difluorophenyl)-1,1-difluoro-3-(1H-tetrazol-1-yl)propan-2-ol]

These compounds were tested on Puccinia recondita tritici = Puccinia triticina (PUCCRT) (assay: Fungicidal activity vs. wheat leaf rust). Details: % disease control @ 50 ppm, wheat seedlings sprayed, inoculated the following day, severity evaluated 7-9 days later, read-out: Puccinia Rating.
Format: in vivo, Puccinia recondita tritici on wheat (variety Yuma)
Source text: D. Evaluation of Fungicidal Activity Vs. Leaf Rust (Causal Agent Puccinia recondita tritici=Puccinia triticina; Bayer code PUCCRT). […] Each pot contained 3-8 seedlings. These plants were sprayed until wet with the formulated test compounds. The compounds were formulated at 50 ppm in 10 vol. % acetone plus 90 vol. % Triton X water (deionized water 99.99 wt %+0.01 wt % Triton X100), giving a “formulated test compound.” Formulated test compounds were applied to plants using a turn table sprayer fitted with two opposing air atomization nozzles which delivered approximately 1500 L/ha of spray volume. On the following day, the leaves were inoculated with an aqueous spore suspension of Puccinia recondita tritici and the plants were kept in high humidity overnight to permit spores to germinate and infect the leaf. The plants were then transferred to a greenhouse until disease developed on untreated control plants. Disease severity was evaluated 7-9 days later, depending on the speed of disease development. In each case of Table 3, the Puccinia rating scale is as follows: […]

SMILES	pest or weed control at 50 ppm [%]
OC(Cn1cnnn1)(c1ccc(F)cc1F)C(F)(F)c1ccc(-c2ccc(Cl)nc2)cn1 (stereo not shown) [Compound 30, 1-(6′-Chloro-[3,3′-bipyridin]-6-yl)-2-(2,4-difluorophenyl)-1,1-difluoro-3-(1H-tetrazol-1-yl)propan-2-ol]	80 to 100
OC(Cn1cnnn1)(c1ccc(F)cc1F)C(F)(F)c1ccc(/C=C/COCC(F)(F)F)cn1 (stereo not shown) [Compound 6, (E)-2-(2,4-Difluorophenyl)-1,1-difluoro-3-(1H-tetrazol-1-yl)-1-(5-(3-(2,2,2-trifluoroethoxy)prop-1-en-1-yl)pyridin-2-yl)propan-2-ol]	< 40
OC(Cc1cnco1)(c1ccc(F)cc1F)C(F)(F)c1ccc(Br)cn1 (stereo not shown) [Compound 83, 1-(5-Bromopyridin-2-yl)-2-(2,4-difluorophenyl)-1,1-difluoro-3-(oxazol-5-yl)propan-2-ol]	80 to 100
OC(Cn1cnnn1)(c1ccc(F)cc1F)C(F)(F)c1ccc(-c2ccncc2)cn1 (stereo not shown) [Compound 96, 1-([3,4′-bipyridin]-6-yl)-2-(2,4-difluorophenyl)-1,1-difluoro-3-(1H-tetrazol-1-yl)propan-2-ol]	60 to 79
CCOCCCc1ccc(C(F)(F)C(O)(Cn2cnnn2)c2ccc(F)cc2F)nc1 (stereo not shown) [Compound 53, 2-(2,4-Difluorophenyl)-1-(5-(3-ethoxypropyl)pyridin-2-yl)-1,1-difluoro-3-(1H-tetrazol-1-yl)propan-2-ol]	80 to 100
OC(Cn1cnnn1)(c1ccc(F)cc1F)C(F)(F)c1ccc(C2CC2)cn1 (stereo not shown) [Compound 18, 1-(5-Cyclopropylpyridin-2-yl)-2-(2,4-difluorophenyl)-1,1-difluoro-3-(1H-tetrazol-1-yl)propan-2-ol]	80 to 100
OC(Cn1cnnn1)(c1ccc(Cl)cc1F)C(F)(F)c1ccc(F)cn1 (stereo not shown) [Compound 27, 2-(4-Cloro-2-fluorophenyl)-1,1-difluoro-1-(5-fluoropyridin-2-yl)-3-(1H-tetrazol-1-yl)propan-2-ol]	80 to 100
CCOC/C=C\c1ccc(C(F)(F)C(O)(Cn2cnnn2)c2ccc(F)cc2F)nc1 (stereo not shown) [Compound 52, (Z)-2-(2,4-Difluorophenyl)-1-(5-(3-ethoxyprop-1-en-1-yl)pyridin-2-yl)-1,1-difluoro-3-(1H-tetrazol-1-yl)propan-2-ol]	< 40
OC(Cn1cnnn1)(c1ccc(F)cc1F)C(F)(F)c1ccc(-c2ccc(Cl)cn2)cn1 (stereo not shown) [Compound 93, 1-(5-chloro-[2,3′-bipyridin]-6′-yl)-2-(2,4-difluorophenyl)-1,1-difluoro-3-(1H-tetrazol-1-yl)propan-2-ol]	80 to 100
OC(Cn1cnnn1)(c1ccc(F)cc1F)C(F)(F)c1ccc(COc2ccc(C(F)(F)F)cn2)cn1 (stereo not shown) [Compound 99, 2-(2,4-difluorophenyl)-1,1-difluoro-3-(1H-tetrazol-1-yl)-1-(5-(((5-(trifluoromethyl)pyridin-2-yl)oxy)methyl)pyridin-2-yl)propan-2-ol]	80 to 100
OC(Cn1cnnn1)(c1ccc(F)cc1F)C(F)(F)c1ccc(F)cn1 (stereo not shown) [Compound 10, 2-(2,4-Difluorophenyl)-1,1-difluoro-1-(5-fluoropyridin-2-yl)-3-(1H-tetrazol-1-yl)propan-2-ol]	80 to 100
OC(Cn1cnnn1)(c1ccc(F)cc1F)C(F)(F)c1ccc(CCCOCC(F)(F)F)cn1 (stereo not shown) [Compound 45, 2-(2,4-Difluorophenyl)-1,1-difluoro-3-(1H-tetrazol-1-yl)-1-(5-(3-(2,2,2-trifluoroethoxy)propyl)pyridin-2-yl)propan-2-ol]	80 to 100
OC(Cn1cncn1)(c1ccc(F)cc1F)C(F)(F)c1ccc(Cl)cn1 (stereo not shown) [Compound 29, 1-(5-Chloropyridin-2-yl)-2-(2,4-difluorophenyl)-1,1-difluoro-3-(1H-1,2,4-triazol-1-yl)propan-2-ol]	80 to 100
OC(Cn1cnnn1)(c1ccc(F)cc1F)C(F)(F)c1ccc(COc2ncc(C(F)(F)F)cc2Cl)cn1 (stereo not shown) [Compound 100, 1-(5-(((3-chloro-5-(trifluoromethyl)pyridin-2-yl)oxy)methyl)pyridin-2-yl)-2-(2,4-difluorophenyl)-1,1-difluoro-3-(1H-tetrazol-1-yl)propan-2-ol]	80 to 100
OC(Cn1cnnn1)(c1ccc(Cl)cc1F)C(F)(F)c1ccc(CC2CC2)cn1 (stereo not shown) [Compound 60, 7-(4-Chloro-fluorophenyl)-1-(5-(cyclopropylmethyl)pyridin-2-yl)-1,1-difluoro-3-(1H-tetrazol-1-yl)propan-2-ol]	80 to 100
